Key:
Type in all cases: cell-based
[1] = test system: influenza virus (A/PR/8/34 strain); assay: Anti-influenza virus activity, plaque inhibition in MDCK cells; conditions: PR/8, MDCK; for inhibition at 10 µg/mL / inhibition at 100 µg/mL: 72 h, read-out: Inhibitory rate
Rotavirus (Ku strain) = assay: Anti-rotavirus activity, plaque inhibition in MA-104 cells; conditions: 30 μg/mL of test compound, plaque count
RS virus (A-2 strain) = assay: Anti-RS virus (respiratory syncytial virus) activity, plaque inhibition in HEp-2 cells; conditions: 30 μg/mL of test compound, plaque count

| SMILES | inhibition at 100 µg/mL [1] [%] | also measured |
| --- | --- | --- |
| NC(=O)c1nc(F)cnc1O [6-fluoro-3-hydroxy-2-pyrazinecarboxamide] |  | inhibition at 1 µg/mL ([1]; read-out: plaque inhibitory rate): 100% |
| NC(=O)c1nc(F)cn([C@@H]2O[C@H](CO)[C@@H](O)[C@H]2O)c1=O [Example I-6, 4-[(2R,3R,4S,5R)-3,4-dihydroxy-5-(hydroxymethyl)tetrahydro-2-furanyl]-6-fluoro-3-oxo-3,4-dihydro-2-pyrazinecarboxamide] |  | inhibition at 10 µg/mL [1]: 47% |
| NC(=O)c1nccn(C2C[C@H](O)[C@@H](CO)O2)c1=O (stereo partly drawn) [Example I-4, 4-[(4S,5R)-4-hydroxy-5-(hydroxymethyl)tetrahydro-2-furanyl]-3-oxo-3,4-dihydro-2-pyrazinecarboxamide] | 80 |  |
| NC(=O)c1nccn([C@@H]2O[C@H](COC(=O)c3ccccc3)[C@@H](OC(=O)c3ccccc3)[C@H]2OC(=O)c2ccccc2)c1=O [Example I-1, [(2R,3R,4R,5R)-5-[3-(aminocarbonyl)-2-oxo-1(2H)-pyrazinyl]-3,4-bis(benzoyloxy)tetrahydro-2-furanyl]methyl benzoate] |  | anti-rotavirus activity (Rotavirus (Ku strain)): shows an anti-rotavirus activity |
| NC(=O)c1nccn([C@@H]2O[C@H](COP(=O)(O)O)[C@@H](O)[C@H]2O)c1=O [Example I-12, {(2R,3S,4R,5R)-5-[3-(aminocarbonyl)-2-oxo-1(2H)-pyrazinyl]-3,4-dihydroxytetrahydro-2-furanyl}methyl dihydrogen phosphate] | 28 |  |
| NC(=O)c1nc(Cl)cn([C@@H]2O[C@H](CO)[C@@H](O)[C@H]2O)c1=O [Example I-7, 6-chloro-4-[(2R,3R,4S,5R)-3,4-dihydroxy-5-(hydroxymethyl)tetrahydro-2-furanyl]-3-oxo-3,4-dihydro-2-pyrazinecarboxamide] | 42 |  |
| CC(=O)OC[C@H]1O[C@@H](n2ccnc(C(=N)N)c2=O)[C@H](OC(C)=O)[C@@H]1OC(C)=O [Example I-14, (2R,3R,4R,5R)-4-(acetyloxy)-2-[(acetyloxy)methyl]-5-[3-[amino(imino)methyl]-2-oxo-1(2H)-pyrazinyl]tetrahydro-3-furanyl acetate] |  | anti-RS virus activity (RS virus (A-2 strain)): shows an anti-RS virus activity |
| NC(=O)c1nccn(C2C=CC(CO)C2)c1=O (stereo not drawn) [Example I-8, 4-[4-(hydroxymethyl)-2-cyclopenten-1-yl]-3-oxo-3,4-dihydro-2-pyrazinecarboxamide] | 42 |  |
| NC(=O)c1nccn([C@@H]2O[C@H](COP(=O)(OCc3ccccc3)OCc3ccccc3)[C@@H](O)[C@H]2O)c1=O [Example I-13, {(2R,3S,4R,5R)-5-[3-(aminocarbonyl)-2-oxo-1(2H)-pyrazinyl]-3,4-dihydroxytetrahydro-2-furanyl}methyl dibenzyl phosphate] | 39 |  |
| NC(=O)c1nccn([C@@H]2CO[C@H](CO)[C@@H](O)C2)c1=O [Example I-9, 4-[(3S,5S,6R)-5-hydroxy-6-(hydroxymethyl)tetrahydro-2H-pyran-3-yl]-3-oxo-3,4-dihydro-2-pyrazinecarboxamide] | 31 |  |
| NC(=O)c1nccn([C@@H]2CO[C@H](CO)[C@@H](O)[C@H]2O)c1=O [Example I-10, 4-[(3R,4S,5S,6R)-4,5-dihydroxy-6-(hydroxymethyl)tetrahydro-2H-pyran-3-yl]-3-oxo-3,4-dihydro-2-pyrazinecarboxamide] | 26 |  |
| NC(=O)c1nccn([C@@H]2O[C@H](CO)[C@@H](O)[C@H]2O)c1=O [Example I-2, 4-[(2R,3R,4S,5R)-3,4-dihydroxy-5-(hydroxymethyl)tetrahydro-2-furanyl]-3-oxo-3,4-dihydro-2-pyrazinecarboxamide] |  | inhibition at 10 µg/mL [1]: 95% |

Source: patent US6800629B2, “Pyrazine derivatives or salts thereof, pharmaceutical composition containing the same, and production intermediates thereof” (priority 2000, dated 2004)
